Experimental data taken from ChEMBL document CHEMBL1123997, “Modeling of beta-adrenoceptors based on molecular electrostatic potential studies of agonists and antagonists” (J Med Chem, 1988).

How the values were obtained:
[1] = target: T1, Adrenergic receptor beta (Homo sapiens) (UniProt P08588+P07550+P13945)
[2] = target: T1, Adrenergic receptor beta (Homo sapiens); remark: listed apart in the source
[3] = target: T1, Adrenergic receptor beta (Homo sapiens); settings: filed as antagonist
[4] = target: T1, Adrenergic receptor beta (Homo sapiens); settings: filed as agonist
Description: Tested for intrinsic sympathomimetic activity (ISA); Agonist

[5] = target: T1, Adrenergic receptor beta (Homo sapiens); settings: filed as antagonist; remark: listed apart in the source

## COc1ccc(CCNC[C@H](O)COc2ccc(-c3nc(C(C)=O)c[nH]3)cc2)cc1OC
[1]
  ISA: Partial agonist

## CC(C)(C)NCC(O)COc1ccccc1C#N (centres undefined)
[1]
  ISA: Partial agonist

## CCc1cccc2cc(C(O)CNC(C)(C)C)oc12 (centres undefined)
[2]
  ISA: Partial agonist

## CC(C)NCC(O)COc1cccc2[nH]ccc12 (centres undefined)
[2]
  ISA: Partial agonist

## CC(C)(C)NCC(O)COc1cccc2c1CCCC2=O (centres undefined)
[3]
  ISA: Antagonist

## CCN(CC)C(=O)Nc1ccc(OCC(O)CNC(C)(C)C)c(C(C)=O)c1 (centres undefined)
[1]
  ISA: Partial agonist

## Cc1cc2c(OCC(O)CNC(C)C)cccc2[nH]1 (centres undefined)
[1]
  ISA: Partial agonist

## NC[C@H](O)c1ccc(O)c(O)c1
[4]
  ISA: Agonist

## COc1ccc(CCNC[C@H](O)COc2ccc(Cc3nc(C(C)=O)c[nH]3)cc2)cc1OC
[5]
  ISA: Antagonist

## COCCOc1ccc(OC[C@@H](O)CNC(C)C)cc1
[2]
  ISA: Partial agonist

## CC(C)(C)NCC(O)COc1cccc2c1SCCC2 (centres undefined)
[5]
  ISA: Antagonist

## CC(C)(C)NCC(O)COc1cccc2c1CC(O)C(O)C2 (centres undefined)
[5]
  ISA: Antagonist

## CC(C)NCC(O)c1ccc(Cl)c(Cl)c1 (centres undefined)
[2]
  ISA: Partial agonist

## CC(C)(C)NC[C@H](O)COc1cccc2c1CC1(CCCCC1)C2=O
[5]
  ISA: Antagonist
